According to US11903387B2 (priority 2016, dated 2024):
Several values for one entry are separate records, joined by “and”; a condition that tells them apart may be missing. Identical values can stand only once. Like-named read-outs stand apart in the source and are kept apart here.

Tests used:
[1] = test system: Phytophthora infestans; assay: whole plant or invertebrate; assay type: in vivo
[2] = test system: Pseudoperonospora cubensis; assay: Test 2: control effect against cucumber downy mildew; assay type: in vivo
[3] = Pseudoperonospora cubensis, applied alone, 2 ppm, read-out: Test 2 preventive value, Measured
[4] = Pseudoperonospora cubensis, applied alone, 10 ppm, read-out: Test 2 preventive value, Measured
[5] = Phytophthora infestans, in Solanum lycopersicum, read-out: Test 1 Measured, component (b) alone, 0.4 ppm
[6] = Phytophthora infestans, in Solanum lycopersicum, read-out: Test 1 Measured, component (b) alone, 2 ppm
[7] = Phytophthora infestans, in Solanum lycopersicum, read-out: Test 1 Measured, component (b) alone, 10 ppm
[8] = Pseudoperonospora cubensis, component (b) alone, 0.4 ppm, read-out: Test 2 Measured
[9] = Pseudoperonospora cubensis, component (b) alone, 2 ppm, read-out: Test 2 Measured
[10] = Pseudoperonospora cubensis, component (b) alone, 10 ppm, read-out: Test 2 Measured

Q: Which pest or weed control at 0.0024 ppm ([1]; Phytophthora infestans, in Solanum lycopersicum, read-out: Test 1 Measured, Compound 1-62 alone, 0.0024 ppm) does the source give for `CS(=O)(=O)Oc1ccc(F)c2c1COC(c1csc(C3CCN(C(=O)Cn4nc(C(F)F)cc4C(F)F)CC3)n1)OC2` (stereo not drawn) [Compound 1-62, 4-[4-(6-fluoro-9-methylsulfonyloxy-1,5-dihydro-3H-2,4-benzodioxepin-3-yl)-2-thiazolyl]-1-[2-[3,5-bis(difluoromethyl)-1H-pyrazol-1-yl]acetyl]piperidine] here?
A: 59%

Q: And the pest or weed control at 0.012 ppm ([1]; Phytophthora infestans, in Solanum lycopersicum, read-out: Test 1 Measured, Compound 1-62 alone, 0.012 ppm)?
A: 98%

Q: And the pest or weed control at 0.06 ppm ([1]; Phytophthora infestans, in Solanum lycopersicum, read-out: Test 1 Measured, Compound 1-62 alone, 0.06 ppm)?
A: 100%

Q: And the pest or weed control at 0.0024 ppm ([2]; Pseudoperonospora cubensis, Compound 1-62 alone, 0.0024 ppm, read-out: Test 2 Measured)?
A: 86%

Q: And the pest or weed control at 0.012 ppm ([2]; Pseudoperonospora cubensis, Compound 1-62 alone, 0.012 ppm, read-out: Test 2 Measured)?
A: 100%

Q: And the pest or weed control at 0.06 ppm ([2]; Pseudoperonospora cubensis, Compound 1-62 alone, read-out: Test 2 Measured)?
A: 100%

Q: What does the source list for `C[C@@]1(c2ccc(Oc3ccccc3)cc2)OC(=O)N(Nc2ccccc2)C1=O` (racemic) [Famoxadone]?
A: pest or weed control at 2 ppm ([1]; Phytophthora infestans, in Solanum lycopersicum, read-out: Test 1 preventive value, Measured, applied alone, 2 ppm): 0%; pest or weed control at 10 ppm ([1]; Phytophthora infestans, in Solanum lycopersicum, read-out: Test 1 preventive value, Measured, applied alone, 10 ppm): 0%; pest or weed control at 50 ppm ([1]; Phytophthora infestans, in Solanum lycopersicum, read-out: Test 1 preventive value, Measured, applied alone, 50 ppm): 10%; pest or weed control at 2 ppm [2, 3]: 0%; pest or weed control at 10 ppm [2, 4]: 0%; pest or weed control at 50 ppm ([2]; Pseudoperonospora cubensis, applied alone, 50 ppm, read-out: Test 2 preventive value, Measured): 0%

Q: For `Cc1cc(C(F)(F)F)nn1CC(=O)N1CCC(c2nc(C3OCc4cccc(OS(C)(=O)=O)c4CO3)cs2)CC1` (stereo not drawn) [Compound 1-6, 4-[4-(6-methylsulfonyloxy-1,5-dihydro-3H-2,4-benzodioxepin-3-yl)-2-thiazolyl]-1-[2-[5-methyl-3-(trifluoromethyl)-1H-pyrazol-1-yl]acetyl]piperidine], which pest or weed control at 0.06 ppm ([1]; Phytophthora infestans, in Solanum lycopersicum, read-out: Test 1 Measured preventive value, Compound 1-6 alone 0.06 ppm, average of three repeats) is on record?
A: 25%

Q: What about the pest or weed control at 0.3 ppm ([1]; Phytophthora infestans, in Solanum lycopersicum, read-out: Test 1 Measured preventive value, Compound 1-6 alone 0.3 ppm, average of three repeats) of the same molecule?
A: 99.5%

Q: And the pest or weed control at 0.3 ppm ([1]; Phytophthora infestans, in Solanum lycopersicum, read-out: Test 1 Measured preventive value, Compound alone, 0.3 ppm)?
A: 98.3%

Q: And the pest or weed control at 0.3 ppm ([1]; Phytophthora infestans, in Solanum lycopersicum, read-out: Test 1 Measured, Compound alone 0.3 ppm)?
A: 98%

Q: What about the pest or weed control at 0.06 ppm ([1]; Phytophthora infestans, in Solanum lycopersicum, read-out: Test 1 preventive value, Measured, applied alone, 0.06 ppm) of the same molecule?
A: 68.3%

Q: What about the pest or weed control at 0.3 ppm ([1]; Phytophthora infestans, in Solanum lycopersicum, read-out: Test 1 preventive value, Measured, applied alone, 0.3 ppm) of the same molecule?
A: 97.7%

Q: What about the “Test 2 Measured preventive value” ([2]; Compound 1-6 alone 0.06 ppm, average of three repeats) of the same molecule?
A: 5

Q: What about the “Test 2 Measured preventive value” ([2]; Compound 1-6 alone 0.3 ppm, average of three repeats) of the same molecule?
A: 93.8

Q: What about the “Test 2 Measured preventive value” ([2]; Compound alone, 0.3 ppm) of the same molecule?
A: 69.58 and 96.3

Q: What about the pest or weed control at 0.3 ppm ([2]; Pseudoperonospora cubensis, Compound alone 0.3 ppm, read-out: Test 2 Measured) of the same molecule?
A: 98.5%

Q: What about the pest or weed control at 0.06 ppm ([2]; Pseudoperonospora cubensis, applied alone, read-out: Test 2 preventive value, Measured) of the same molecule?
A: 40%

Q: And the pest or weed control at 0.3 ppm ([2]; Pseudoperonospora cubensis, applied alone, 0.3 ppm, read-out: Test 2 preventive value, Measured)?
A: 98%

Q: For `CCCCCCCCc1c(CC)nc2ncnn2c1N` [Ametoctradin], which “Test 1 Measured” value ([1]; component (b) alone, 0.4 ppm) is on record?
A: 0.0

Q: What about the “Test 1 Measured” value ([1]; component (b) alone, 2 ppm) of the same molecule?
A: 18.3

Q: What about the “Test 1 Measured” value ([1]; component (b) alone, 10 ppm) of the same molecule?
A: 95.7

Q: What about the “Test 2 Measured” value ([2]; component (b) alone, 0.4 ppm) of the same molecule?
A: 77.5

Q: And the “Test 2 Measured” value ([2]; component (b) alone, 2 ppm)?
A: 95

Q: What about the “Test 2 Measured” value ([2]; component (b) alone, 10 ppm) of the same molecule?
A: 98.8

Q: With `CSC1=N[C@@](C)(c2ccccc2)C(=O)N1Nc1ccccc1` [Fenamidone] as the molecule, how does the pest or weed control at 0.4 ppm [1, 5] read?
A: 16.7%

Q: And the pest or weed control at 2 ppm [1, 6]?
A: 94.2%

Q: What about the pest or weed control at 10 ppm [1, 7] of the same molecule?
A: 98.5%

Q: And the pest or weed control at 0.4 ppm [2, 8]?
A: 0%

Q: What about the pest or weed control at 2 ppm [2, 9] of the same molecule?
A: 0%

Q: What about the pest or weed control at 10 ppm [2, 10] of the same molecule?
A: 0%

Q: What does the source list for `CCCOC(=O)NCCCN(C)C` [Propamocarb]?
A: pest or weed control at 200 ppm ([1]; Phytophthora infestans, in Solanum lycopersicum, read-out: Test 1 Measured, component (b) alone 200 ppm): 5%; pest or weed control at 1000 ppm ([1]; Phytophthora infestans, in Solanum lycopersicum, read-out: Test 1 Measured, component (b) alone 1000 ppm): 21.7%; pest or weed control at 5000 ppm ([1]; Phytophthora infestans, in Solanum lycopersicum, read-out: Test 1 Measured, component (b) alone 5000 ppm): 48.3%; pest or weed control at 200 ppm ([2]; Pseudoperonospora cubensis, component (b) alone 200 ppm, read-out: Test 2 Measured): 45%; pest or weed control at 1000 ppm ([2]; Pseudoperonospora cubensis, component (b) alone 1000 ppm, read-out: Test 2 Measured): 97.5%; pest or weed control at 5000 ppm ([2]; Pseudoperonospora cubensis, component (b) alone 5000 ppm, read-out: Test 2 Measured): 81.5%

Q: With `Cc1cc(C(F)(F)F)nn1CC(=O)N1CCC(c2nc(C3=NOC(c4c(F)cccc4F)C3)cs2)CC1` (stereo not drawn) [Oxathiapiprolin] as the molecule, how does the “Test 1 Measured” value ([1]; component (b) alone 0.0024 ppm) read?
A: 60.2

Q: And the “Test 1 Measured” value ([1]; component (b) alone 0.012 ppm)?
A: 95

Q: And the “Test 1 Measured” value ([1]; component (b) alone 0.06 ppm)?
A: 100

Q: What about the “Test 2 Measured” value ([2]; component (b) alone 0.0024 ppm) of the same molecule?
A: 40

Q: What about the “Test 2 Measured” value ([2]; component (b) alone 0.012 ppm) of the same molecule?
A: 99

Q: What about the “Test 2 Measured” value ([2]; component (b) alone 0.06 ppm) of the same molecule?
A: 100

Q: How did the pest or weed control at 20 ppm ([1]; Phytophthora infestans, in Solanum lycopersicum, read-out: Test 1 Measured, component (b) alone 20 ppm) turn out when `CC(C)NC(=O)N1CC(=O)N(c2cc(Cl)cc(Cl)c2)C1=O` [Iprodione] was run?
A: 0%

Q: And the pest or weed control at 100 ppm ([1]; Phytophthora infestans, in Solanum lycopersicum, read-out: Test 1 Measured, component (b) alone 100 ppm)?
A: 0%

Q: What about the pest or weed control at 500 ppm ([1]; Phytophthora infestans, in Solanum lycopersicum, read-out: Test 1 Measured, component (b) alone 500 ppm) of the same molecule?
A: 5%

Q: And the pest or weed control at 20 ppm ([2]; Pseudoperonospora cubensis, component (b) alone 20 ppm, read-out: Test 2 Measured)?
A: 0%

Q: What about the pest or weed control at 100 ppm ([2]; Pseudoperonospora cubensis, component (b) alone 100 ppm, read-out: Test 2 Measured) of the same molecule?
A: 0%

Q: And the pest or weed control at 500 ppm ([2]; Pseudoperonospora cubensis, component (b) alone 500 ppm, read-out: Test 2 Measured)?
A: 0%

Q: What does the source list for `N#Cc1c(Cl)c(Cl)c(Cl)c(C#N)c1Cl` [Chlorothalonil]?
A: pest or weed control at 0.4 ppm ([1]; Phytophthora infestans, in Solanum lycopersicum, read-out: Test 1 Measured preventive value, component (b) alone, 0.4 ppm): 0%; pest or weed control at 2 ppm ([1]; Phytophthora infestans, in Solanum lycopersicum, read-out: Test 1 Measured preventive value, component (b) alone, 2 ppm): 53.3%; pest or weed control at 10 ppm ([1]; Phytophthora infestans, in Solanum lycopersicum, read-out: Test 1 Measured preventive value, component (b) alone, 10 ppm): 100%; pest or weed control at 0.4 ppm [1, 5]: 0%; pest or weed control at 2 ppm [1, 6]: 62.1%; pest or weed control at 10 ppm [1, 7]: 100%; pest or weed control at 0.4 ppm ([2]; Pseudoperonospora cubensis, applied alone, 0.4 ppm, read-out: Test 2 preventive value, Measured): 41.8%; pest or weed control at 2 ppm [2, 3]: 100%; pest or weed control at 10 ppm [2, 4]: 100%; pest or weed control at 0.4 ppm [2, 8]: 0%; pest or weed control at 2 ppm [2, 9]: 80.5%; pest or weed control at 10 ppm [2, 10]: 100%

Q: Which “Test 1 Measured” value ([1]; component (b) alone, 2 ppm) does the source give for Propineb here?
A: 0.0

Q: And the “Test 1 Measured preventive value” ([1]; component (b) alone, 2 ppm)?
A: 0.0

Q: And the “Test 1 Measured” value ([1]; component (b) alone, 10 ppm)?
A: 36.1

Q: And the “Test 1 Measured preventive value” ([1]; component (b) alone, 10 ppm)?
A: 48.3

Q: What about the “Test 1 Measured” value ([1]; component (b) alone, 50 ppm) of the same molecule?
A: 99.0

Q: And the “Test 1 Measured preventive value” ([1]; component (b) alone, 50 ppm)?
A: 98.3

Q: What about the “Test 2 Measured” value ([2]; component (b) alone, 2 ppm) of the same molecule?
A: 17.5

Q: And the “Test 2 Measured preventive value” ([2]; component (b) alone, 2 ppm)?
A: 7.5

Q: What about the “Test 2 Measured” value ([2]; component (b) alone, 10 ppm) of the same molecule?
A: 95

Q: What about the “Test 2 Measured preventive value” ([2]; component (b) alone, 10 ppm) of the same molecule?
A: 94.3

Q: And the “Test 2 Measured” value ([2]; component (b) alone, 50 ppm)?
A: 100

Q: And the “Test 2 Measured preventive value” ([2]; component (b) alone, 50 ppm)?
A: 100
